How the values of data set [1] were obtained:
The partition coefficient is determined by means of various methods according to the value.

Data set [2] in a line: XUD9 engine test (keep clean), flow restriction, CEC F-23-01. The conditions noted are these: 0.1 mm needle stroke, Aral EN590 B7 fuel. The source says:
1. XUD9 Test—Determination of Flow Restriction
The procedure was according to the standard provisions of CEC F-23-01.
Test according to above procedure CEC F-23-01 in Peugeot XUD9 engine.

Data set [3] is described as follows: Motor oil compatibility to standard DGMK 531 1-A (filtration time). The note with it: for filtration time: 10 g additive + 10 g motor oil, 90° C. three days, 500 ml EN590 B7 diesel, 0.8 μm membrane filter, 200 mbar; for filterability / motor oil compatibility pass/fail: DGMK 531 1-A. On the procedure: Determination to standard DGMK 531 1-A with EN590 B7 fuel from Aral, unadditized, and Wintershall Multi-Rekord Top 15W-40 motor oil.
10 g in each case of motor oil and 10 g of the additive to be tested are weighed into a 500 ml Erlenmeyer flask and homogenized. The flask containing the mixture is loosely sealed with a glass stopper and conditioned in a drying cabinet at a temperature of 90±3° C. for three days. After the conditioning, the sample is cooled in a fume hood at room temperature for one hour. The mixture is then made up with 500 ml of diesel fuel and mixed thoroughly. A membrane filter of diameter 50 mm and pore size 0.8 μm is inserted into the filtration apparatus. Mixture is filtered through the membrane filter with the aid of a reduced pressure of 200 mbar. The filtration time is measured.

A short description of data set [4]: DW10 Zn engine test (clean-up), engine power. The note with it: 25 mg/kg active compound. On the procedure: 2.2. DW10 Dirty-Up Clean-Up (DU-CU)
The DU-CU test is based on CEC test procedure F-098-08 Issue 5. The procedure is described in Issue 5 of the test procedure (CEC F-98-08). This is done using the same test setup and the PEUGEOT DW10 engine type.
The DU-CU test consists of two individual tests which are run in succession. The first test serves to form deposits (DU), the second to remove the deposits (CU). After the DU, the power loss is determined. After the end of the DU run, the engine is not operated for at least 8 hours and is cooled to ambient temperature. Thereafter, the CU fuel is used to start the CU without deinstalling and cleaning the injectors. The deposits and power loss ideally decline over the course of the CU test.
The initial power P0,cu [kW] is calculated from the measured torque at full load 4000/min directly after the test has started and the engine has run hot in the CU. The procedure is likewise described in Issue 5 of the test procedure.
The final power (Pend,cu) is determined in the 12th cycle in stage 12 (see table, FIG. 2). Here too, the operation point is full load 4000/min. Pend,cu [kW] is calculated from the torque measured.
The test was conducted with a Peugeot DW10 engine, which is used in CEC F-98-08 procedure, except that more severe conditions were used in the dirty-up part:
I. Dirty-up: the more severe conditions allow distinctly faster formation of injector deposits than under standard CEC F-98-08 conditions: The engine was operated at full load (4000 rpm) with EN590 B7 Aral, unadditized, containing 3 mg/kg Zn, for 4 h.

Data set [5] in a line: DW10 Na power-loss test (keep-clean). The conditions noted are these: 8 h, 1 ppm Na + 20 ppm dodecenylsuccinic acid and 150 ppm additive. On the procedure:
To examine the efficacy of the inventive compounds against power loss caused by metals such as Na, K and others (and not by Zn as described above), an IDID engine test was used. During the run, the power is measured to CEC F-098-08.

Data set [6] in a line: Storage stability of formulations at −20° C. In kind it is physicochemical. On the procedure: The following formulations were tested for storage stability at −20° C.: […]
a) 1:5 Dilution in Solvent Naphtha (5 Parts):
b) 1:5:1 Dilution in 2-Ethylhexyl Nitrate (5 Parts) and Solvent Naphtha (1 Part)

A short description of data set [7]: DW10 Na soap IDID test (clean-up), exhaust gas temperatures on cold start. The conditions noted are these: CU, 70 mg/kg active compound. On the procedure: 3. IDID Test—Determination of Additive Effect on Internal Injector Deposits
The formation of deposits within the injector was characterized by the deviations in the exhaust gas temperatures of the cylinders at the cylinder outlet on cold starting of the DW10 engine.
To promote the formation of deposits, 1 mg/l of sodium salt of an organic acid, 20 mg/l of dodecenylsuccinic acid and 10 mg/l of water were added to the fuel.
The test is conducted as a dirty-up clean-up test (DU-CU).
Thereafter, the CU fuel is used to start the CU without deinstalling and cleaning the injectors. After the CU run over 8 h, after a rest phase of at least eight hours, a cold start of the engine is conducted, followed by idling for 10 minutes. The evaluation is effected by the comparison of the temperature profiles for the individual cylinders after the cold start in the DU and CU runs.
The IDID test indicates the formation of internal deposits in the injector. The characteristic used in this test is the exhaust gas temperature of the individual cylinders. In an injector system without IDIDs, the exhaust gas temperatures of the cylinders increase homogeneously.
The temperature sensors are beyond the cylinder head outlet in the exhaust gas manifold. Significant deviation of the individual cylinder temperatures (e.g. >20° C.) indicates the presence of internal injector deposits (IDIDs).
The tests (DU and CU) are each conducted with run time 8 h. The one-hour test cycle from CEC F-098-08 (see FIG. 1) is run through 8 times in each case. In the event of deviations of the individual cylinder temperatures of greater than 45° C. from the mean for all 4 cylinders, the test is stopped early.
To examine the influence of the additives on the performance of direct injection diesel engines, as a further test method, the IDID engine test was conducted, in which the exhaust gas temperatures in the cylinders at the cylinder outlet were determined on cold starting of the DW10 engine. (cf. method description above)
A DW10 direct injection diesel engine with common rail system from the manufacturer Peugeot was used, which was employed in the CEC F-098-08 test method. The method that was used derived from CEC F-098-08, with the difference that, rather than 1 ppm of Zn for artificial inducement of formation of deposits, 1 ppm by weight of sodium naphthenate and 20 ppm by weight of dodecenylsuccinic acid were used in each case. The fuel used was a commercial B7 diesel fuel according to EN 590 from Aral. The test duration is shortened to 8 hours compared to method CEC F-098-08. After respective DU and CU phases, the engine is cooled and then started at idling speed.
II. CU (clean-up) After the DU phase, the engine is operated with additized fuel without cleaning the injectors beforehand.
Again, the exhaust gas temperatures of the 4 cylinders (“C1” to “C4”) were measured at each of the cylinder outlets after 0 minutes (“ϑ0”) and after 5 minutes (“ϑ5”). The results of the exhaust gas temperature measurements with average values (“Δ”) and the greatest differences from Δ in the downward (“−”) and upward (“+”) directions for the two test runs are summarized in the following overview: […]

Setting [8] is: 1:5:1 dilution in 2-ethylhexyl nitrate (5 parts) and Solvent Naphtha (1 part).
The mark [9] stands for this setting: 1:5 dilution in Solvent Naphtha (5 parts).

As to `CCCCC(CC)CO` (stereo not drawn) [2-ethylhexanol], the “partition coefficient log Pow” value in data set [1] came to 2.9.
Turning to `CCCCCO` [pentanol], in data set [1], the “partition coefficient log Pow” value is given as 1.3.
With “C12/14-NMe3-2-Propylheptyl Oxalate [Inventive example 1]”, the Flow restriction in data set [2] (dosage 24 mg/kg) stood at 46.6%. The molecule further registered a Flow restriction in data set [2] (dosage 36 mg/kg) of 14.5%. Also, the Flow restriction in data set [2] (dosage 48 mg/kg) turned out to be 4.5%. Moreover, in data set [3], the filtration time worked out at 114 s, the filterability result is “good filterability” and the “motor oil compatibility pass/fail” value is listed as “pass”. In data set [4] (1 ppm Zn in EN590 B7, after dirty-up), the “Engine power on commencement of clean-up test” value amounted to 90.2 kW. Further, the “Engine power after engine running for 3 h” value in data set [4] (1 ppm Zn in EN590 B7, clean-up) came to 97.7 kW. For the same molecule, the “Engine power until the end of the clean-up test” value in data set [4] (1 ppm Zn in EN590 B7, clean-up lasting 8 h) amounted to 97.7 kW. In data set [5], the “Change in power in the test” value was “+0.2%”, the “Engine power after the test” value came out at 96.6 kW and the “Engine power before the test” value was found to be 96.4 kW. The storage stability observation result in data set [6] (setting [8]) was “clear liquid after 14 days”. Further, in data set [6] (setting [9]), the storage stability observation entry is given as “clear liquid after 60 days”. For the same molecule, in data set [7], the “average exhaust gas temperature (Δ)” value is 77 °C, the “evaluation of IDID clean-up” value is “the IDIDs formed were removed”, the “greatest difference from Δ in the downward direction” value is −8 °C and the “greatest difference from Δ in the upward direction” value is “+5 °C”. In addition, in data set [7] (after 0 minutes (ϑ0)), the “exhaust gas temperature cylinder C1” value is “C1: 28 °C”, the “exhaust gas temperature cylinder C2” value was “C2: 27 °C”, the “exhaust gas temperature cylinder C3” value is “C3: 27 °C” and the “exhaust gas temperature cylinder C4” value is “C4: 26 °C”. In addition, in data set [7] (after 5 minutes (ϑ5)), the “exhaust gas temperature cylinder C1” value is “C1: 78 °C”, the “exhaust gas temperature cylinder C2” value was “C2: 82 °C”, the “exhaust gas temperature cylinder C3” value was “C3: 77 °C” and the “exhaust gas temperature cylinder C4” value is “C4: 69 °C”.
Consider “C12/14-NMe3-Methyl Oxalate [Comparative example 1, reference compound]”, for which, in data set [3], the filtration time is more than 300 s, the filterability entry is on record as “very poor filterability” and the “motor oil compatibility pass/fail” value is recorded as “fail”. The storage stability observation entry in data set [6] (setting [8]) is “solidification after 1 day”. Besides, in data set [6] (setting [9]), the storage stability observation entry was “solidification after 44 days”.

Source of the values: patent US10815444B2, “Use of specific derivatives of quaternized nitrogen compounds as additives in fuels and lubricants” (BASF SE, priority 2013, dated 2020).
